We go through 30 compounds from US8883792B2, “Substituted isoquinoline derivative” (D. Western Therapeutics Institute, Inc., priority 2010, dated 2014).

The subject of the assay is rabbits (New Zealand White). Description: Ocular hypotensive effect in rabbits. The note with it: male New Zealand White rabbits, 0.04 mL eye drop, concentration of 1% (w/v) or lower, maximum ocular hypotensive rate vs vehicle-treated contralateral eye. The assay is classed as in vivo, rabbit. The procedure: The compound of the present invention was administered to rabbits (New Zealand White, sex: male, 3 to 6 per group) and evaluated for its ocular hypotensive effect.
Each test compound was dissolved in a vehicle 1 (1.04 g of sodium dihydrogen phosphate dihydrate and 0.5 g of sodium chloride dissolved in purified water and then adjusted to pH 7.0 with sodium hydroxide to make the total amount to 100 mL) or a vehicle 2 (2% (w/v) aqueous boric acid solution) to prepare a test compound solution with a predetermined concentration.
The intraocular pressures of the rabbits were measured using Tiolat TonoVet handheld tonometer immediately before administration of test compound. The test compound solution and the vehicle were dropped at a volume of 0.04 mL to one eye and the contralateral eye, respectively, and the intraocular pressures were measured over time in the same way as above. The rate of the intraocular pressure of the eye receiving the test compound solution to that of the eye receiving the vehicle was calculated as an ocular hypotensive rate.

Where a name gives a salt, the structure may show the parent alone.

For the compound `C[C@H](CNCCCc1ccccc1)NS(=O)(=O)c1ccc2cnccc2c1` [Example 34, (R)—N-{1-(3-phenylpropylamino)propan-2-yl}isoquinoline-6-sulfonamide dihydrochloride], the Ocular hypotensive activity entry is on record as “++ (maximum ocular hypotensive rate of 15% or more)”. In the case of `C[C@@H](CNCCc1c[nH]c2ccccc12)NS(=O)(=O)c1ccc2cnccc2c1.Cl` [Example 37, (S)—N-[1-{2-(1H-indol-3-yl)ethylamino}propan-2-yl]isoquinoline-6-sulfonamide hydrochloride] it was “++ (maximum ocular hypotensive rate of 15% or more)”. As to `C[C@H](CNCCc1ccccc1Cl)NS(=O)(=O)c1ccc2cnccc2c1` [Example 38, (R)—N-{1-(2-chlorophenethylamino)propan-2-yl}isoquinoline-6-sulfonamide dihydrochloride], the Ocular hypotensive activity entry is recorded as “++ (maximum ocular hypotensive rate of 15% or more)”.

With `C[C@H](CNCCc1ccc(Cl)cc1)NS(=O)(=O)c1ccc2cnccc2c1` [Example 39, (R)—N-{1-(4-chlorophenethylamino)propan-2-yl}isoquinoline-6-sulfonamide dihydrochloride], the Ocular hypotensive activity entry is recorded as “++ (maximum ocular hypotensive rate of 15% or more)”.

Regarding `C[C@H](CNCCc1cccs1)NS(=O)(=O)c1ccc2cnccc2c1.Cl` [Example 40, (R)—N-[1-{2-(thiophen-2-yl)ethylamino}propan-2-yl]isoquinoline-6-sulfonamide hydrochloride], the Ocular hypotensive activity entry is given as “++ (maximum ocular hypotensive rate of 15% or more)”.

For `C[C@H](CNCCc1ccsc1)NS(=O)(=O)c1ccc2cnccc2c1.Cl` [Example 41, (R)—N-[1-{2-(thiophen-3-yl)ethylamino}propan-2-yl]isoquinoline-6-sulfonamide hydrochloride], the Ocular hypotensive activity entry was “++ (maximum ocular hypotensive rate of 15% or more)”.

With `C[C@H](CNCCc1ccncc1)NS(=O)(=O)c1ccc2cnccc2c1` [Example 42, (R)—N-[1-{2-(pyridin-4-yl)ethylamino}propan-2-yl]isoquinoline-6-sulfonamide trihydrochloride], the Ocular hypotensive activity result was “+ (maximum ocular hypotensive rate of 5% or more and less than 15%)”.

Take `C[C@H](CNC/C=C/c1ccc(Br)cc1)NS(=O)(=O)c1ccc2cnccc2c1` [Example 43, (R, E)-N-[1-{3-(4-bromophenyl)allylamino}propan-2-yl]isoquinoline-6-sulfonamide dihydrochloride]: the Ocular hypotensive activity entry is reported as “++ (maximum ocular hypotensive rate of 15% or more)”. As to `C[C@H](CNC/C=C/c1ccccc1)NS(=O)(=O)c1ccc2cnccc2c1` [Example 44, (R, E)-N-{1-(cinnamylamino)propan-2-yl}isoquinoline-6-sulfonamide dihydrochloride], the Ocular hypotensive activity result was “+ (maximum ocular hypotensive rate of 5% or more and less than 15%)”. With `C[C@H](CNCCOc1ccccc1)NS(=O)(=O)c1ccc2cnccc2c1` [Example 45, (R)—N-{1-(2-phenoxyethylamino)propan-2-yl}isoquinoline-6-sulfonamide dihydrochloride], the Ocular hypotensive activity result is recorded as “++ (maximum ocular hypotensive rate of 15% or more)”. Regarding `C[C@H](CNCCc1cccc2ccccc12)NS(=O)(=O)c1ccc2cnccc2c1.Cl` [Example 46], the Ocular hypotensive activity result is “++ (maximum ocular hypotensive rate of 15% or more)”. Take `C#CCNC[C@@H](C)NS(=O)(=O)c1ccc2cnccc2c1` [Example 47, (R)—N-{1-(prop-2-yn-1-ylamino)propan-2-yl}isoquinoline-6-sulfonamide dihydrochloride]: the Ocular hypotensive activity result is “++ (maximum ocular hypotensive rate of 15% or more)”. Consider `CO[C@H](CNC[C@@H](C)NS(=O)(=O)c1ccc2cnccc2c1)c1ccccc1.Cl` [Example 48, N—[(R)-1-{(S)-2-methoxy-2-phenylethylamino}propan-2-yl]isoquinoline-6-sulfonamide hydrochloride], for which the Ocular hypotensive activity result is recorded as “++ (maximum ocular hypotensive rate of 15% or more)”. On to `C[C@H](CNCCc1cccnc1)NS(=O)(=O)c1ccc2cnccc2c1.Cl` [Example 49, (R)—N-[1-{2-(pyridin-3-yl)ethylamino}propan-2-yl]isoquinoline-6-sulfonamide hydrochloride], for which the Ocular hypotensive activity result is reported as “++ (maximum ocular hypotensive rate of 15% or more)”. Regarding `C[C@H](CNCC[C@@H](O)c1ccccc1)NS(=O)(=O)c1ccc2cnccc2c1.Cl` [Example 50, N—[(R)-1-{(R)-3-hydroxy-3-phenylpropylamino}propan-2-yl]isoquinoline-6-sulfonamide hydrochloride], the Ocular hypotensive activity result is “+ (maximum ocular hypotensive rate of 5% or more and less than 15%)”. Regarding `C[C@H](CNCCc1cccc(F)c1)NS(=O)(=O)c1ccc2cnccc2c1.Cl` [Example 52, (R)—N-{1-(3-fluorophenethylamino)propan-2-yl}isoquinoline-6-sulfonamide hydrochloride], the Ocular hypotensive activity entry is “++ (maximum ocular hypotensive rate of 15% or more)”. Take `C[C@H](CNCCc1cccc(Cl)c1)NS(=O)(=O)c1ccc2cnccc2c1` [Example 54, (R)—N-{1-(3-chlorophenethylamino)propan-2-yl}isoquinoline-6-sulfonamide hydrochloride]: the Ocular hypotensive activity entry is “++ (maximum ocular hypotensive rate of 15% or more)”.

Regarding `C[C@H](CNCCc1ccc(Br)cc1)NS(=O)(=O)c1ccc2cnccc2c1.Cl` [Example 55, (R)—N-{1-(4-bromophenethylamino)propan-2-yl}isoquinoline-6-sulfonamide hydrochloride], the Ocular hypotensive activity entry is given as “++ (maximum ocular hypotensive rate of 15% or more)”. For the compound `Cc1ccccc1CCNC[C@@H](C)NS(=O)(=O)c1ccc2cnccc2c1.Cl` [Example 56, (R)—N-{1-(2-methylphenethylamino)propan-2-yl}isoquinoline-6-sulfonamide hydrochloride], the Ocular hypotensive activity result was “++ (maximum ocular hypotensive rate of 15% or more)”.

Regarding `Cc1cccc(CCNC[C@@H](C)NS(=O)(=O)c2ccc3cnccc3c2)c1.Cl` [Example 57, (R)—N-{1-(3-methylphenethylamino)propan-2-yl}isoquinoline-6-sulfonamide hydrochloride], the Ocular hypotensive activity result is listed as “++ (maximum ocular hypotensive rate of 15% or more)”. Regarding `C[C@H](CNCCc1ccc([N+](=O)[O-])cc1)NS(=O)(=O)c1ccc2cnccc2c1.Cl` [Example 59, (R)—N-{1-(4-nitrophenethylamino)propan-2-yl}isoquinoline-6-sulfonamide hydrochloride], the Ocular hypotensive activity result is reported as “++ (maximum ocular hypotensive rate of 15% or more)”. For `C[C@H](CNCCc1ccc(C(F)(F)F)cc1)NS(=O)(=O)c1ccc2cnccc2c1.Cl` [Example 60, (R)—N-{1-(4-trifluoromethylphenethylamino)propan-2-yl}isoquinoline-6-sulfonamide hydrochloride], the Ocular hypotensive activity entry was “++ (maximum ocular hypotensive rate of 15% or more)”. As for `C[C@H](CNC1CCCCC1)NS(=O)(=O)c1ccc2cnccc2c1.Cl` [Example 61, (R)—N-{1-(cyclohexylamino)propan-2-yl}isoquinoline-6-sulfonamide hydrochloride], the Ocular hypotensive activity entry is “++ (maximum ocular hypotensive rate of 15% or more)”. To `C[C@H](CNC1Cc2ccccc2C1)NS(=O)(=O)c1ccc2cnccc2c1.Cl` [Example 62, (R)—N-{1-(2,3-dihydro-1H-inden-2-ylamino)propan-2-yl}isoquinoline-6-sulfonamide hydrochloride] belongs “++ (maximum ocular hypotensive rate of 15% or more)”. In the case of `C[C@H](CNCCc1c[nH]c2ccc(Cl)cc12)NS(=O)(=O)c1ccc2cnccc2c1.Cl` [Example 63, (R)—N-[1-{2-(5-chloro-1H-indol-3-yl)ethylamino}propan-2-yl]isoquinoline-6-sulfonamide hydrochloride], the Ocular hypotensive activity result was “+ (maximum ocular hypotensive rate of 5% or more and less than 15%)”. Take `C[C@H](CNCCc1cn(C)c2ccccc12)NS(=O)(=O)c1ccc2cnccc2c1.Cl` [Example 64, (R)—N-[1-{2-(1-methyl-1H-indol-3-yl)ethylamino}propan-2-yl]isoquinoline-6-sulfonamide hydrochloride]: the Ocular hypotensive activity entry is “++ (maximum ocular hypotensive rate of 15% or more)”. Consider `C[C@H](CNCCc1ccnc2ccccc12)NS(=O)(=O)c1ccc2cnccc2c1.Cl` [Example 65], for which the Ocular hypotensive activity result was “+ (maximum ocular hypotensive rate of 5% or more and less than 15%)”. With `C[C@H](CNCCc1ccco1)NS(=O)(=O)c1ccc2cnccc2c1.Cl` [Example 66, (R)—N-[1-{2-(furan-2-yl)ethylamino}propan-2-yl]isoquinoline-6-sulfonamide hydrochloride], the Ocular hypotensive activity entry is recorded as “++ (maximum ocular hypotensive rate of 15% or more)”. To `C[C@H](CNCCc1ccoc1)NS(=O)(=O)c1ccc2cnccc2c1.Cl` [Example 67, (R)—N-[1-{2-(furan-3-yl)ethylamino}propan-2-yl]isoquinoline-6-sulfonamide hydrochloride] belongs “++ (maximum ocular hypotensive rate of 15% or more)”; to `C[C@H](CNCCn1cncn1)NS(=O)(=O)c1ccc2cnccc2c1.Cl` [Example 68, (R)—N-[1-{2-(1H-1,2,4-triazol-1-yl)ethylamino}propan-2-yl]isoquinoline-6-sulfonamide hydrochloride], “+ (maximum ocular hypotensive rate of 5% or more and less than 15%)”.
